PubChem BioAssay AID463074 (Broad Institute, 2010)
The source made the active and inactive calls.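 The calls were made as follows: active = AC50 no more than tenfold above the top dose tested, or full inhibition at every dose with a flat fit (cut at about 19 µM in these data); inconclusive = flat curve fit with inhibition between 30% and 70%, or poor fit; inactive = AC50 more than tenfold above the top dose tested.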

Each compound was assayed on HMLE_sh_eGFP viability, CellTiter-Glo luminescence, 72 h (assay: cytotoxicity in HMLE control line with eGFP shRNA, dose response, counter-screen for HMLE_sh_ECad selective toxicity project, cell-based, HMLE_sh_eGFP, luminescence (AID 463074);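 also: counterscreen control line to flag general toxicity for the HMLE_sh_ECad screen; potency for loss of viability as luminescence drops below DMSO wells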).

Structure (SMILES) | AC50
Cc1ccccc1-c1ccc(CN2CCN(C)C(CCO)C2)cc1 (stereo not drawn) | 5.43 µM
O=C(N/N=C(\Cc1ncc[nH]1)c1ccccc1)c1ccncc1 | 3.85 µM
NC(=O)CC(NC(=O)Cc1cccc2ccccc12)c1ccc(NCc2ccc(F)c(F)c2)c([N+](=O)[O-])c1 (stereo not drawn) | 10.7 µM
Cc1[nH]c2ccccc2c1/C=N/NC(=O)C1CC1(c1ccccc1)c1ccccc1 (stereo not drawn) | 6.08 µM
COc1cc(/C=C(\C#N)c2ccccn2)ccc1OCC(=O)Nc1ccc(Br)cc1 | 2.7 µM
CC(C)(C)c1ccc(NC(=O)N2CCCN(c3c(Cl)cncc3Cl)CC2)cc1 | 2.85 µM
c1ccc(-c2sc3ccccc3c2-c2ccc(OCCN3CCCC3)cc2)cc1 | 2.37 µM
CC(C)=CCc1c(O)cc2c(=O)c3ccc(O)cc3oc2c1O | 6.87 µM
CC(C)(C)OC(=O)N1CCC(NC(=O)c2[nH]cnc2C(=O)Nc2ccc(Cl)cc2)CC1 | 5.94 µM
CC(C)(C)OC(=O)NCc1ccc(NC(=O)c2nc[nH]c2C(=O)NCCCCNC(=O)c2[nH]cnc2C(=O)Nc2ccc(CNC(=O)OC(C)(C)C)cc2)cc1 | 2.15 µM
Cc1cc(C)c(C(=O)/C=C/c2ccc(C(C)C)cc2)c(=O)[nH]1 | 10.1 µM
O=C(NC12CC3CC(CC(C3)C1)C2)c1ccc([N+](=O)[O-])o1 | 7.04 µM
CCC1=NN(C(=O)c2ccc(Cl)cc2)C(O)(c2ccc(C)cc2)C1 (stereo not drawn) | 7.99 µM
COc1cc(OC)cc(C(=O)NCCNc2nc3cc(C)cc(C)c3cc2C#N)c1 | > 19.5 µM (inactive)
C[C@]12CCC(O)CC1CCC1C2CC[C@]2(C)C(c3cc(C(F)(F)F)n[nH]3)CCC12 (stereo partly drawn) | 1.78 µM
Cc1ccn2c(NC3CCCCC3)c(-c3cccc(-c4cccc(Cl)c4)c3)nc2c1 | 6.68 µM
O=C(/C=C/c1ccc(Cl)cc1)c1ccc([N+](=O)[O-])o1 | 2.19 µM
CC(C)=CCc1c(O)c(CC=C(C)C)c2occ(-c3ccc(O)cc3)c(=O)c2c1O | 3.49 µM
CCc1ccc([C@@H]2CC=C(C(=O)O)[C@H](c3ccc(Cl)cc3)N2S(=O)(=O)c2ccc(C)cc2)cc1 | 7.1 µM
O=C(Nc1ccc(Br)c(C(F)(F)F)c1)c1ccc(C(F)(F)F)cc1 | 3.03 µM
C/C(=N\NC(=S)Nc1ccc(F)cc1)c1ccc2c(c1)OCCO2 | 2.36 µM
COc1ccc(CCN2C(=S)N(C)C(=O)C2CC(=O)Nc2ccc(OC)cc2)cc1 (stereo not drawn) | 17.8 µM
O=C(NCc1cccnc1)/C(=C\c1ccc(-c2cccc(Cl)c2)o1)S(=O)(=O)c1ccccc1 | 3.13 µM
CCN(CC)CCCNC(=O)c1cc2c(Cl)nc3ccccc3c2s1 | 5.16 µM
O=C(c1ccccc1)c1c[nH]c(C(=O)NNc2ccccc2)c1 | 1.53 µM
O=C(COc1cccc(C(F)(F)F)c1)N1CCN(c2ccc(O)cc2)CC1 | 4.98 µM
CCN1C(=O)C(CC(=O)Nc2ccc(OC)cc2)N(CCCN2CCN(c3ccc(F)cc3)CC2)C1=S (stereo not drawn) | 7.04 µM

Structure (SMILES) | AC50
O=C(Nc1ccn(Cc2ccccc2F)n1)c1ccc(COc2ccc(Cl)cc2Cl)o1 | > 19.5 µM (inactive)
COc1ccc(-c2csc(NC(=S)NC(=O)/C=C/c3ccco3)n2)cc1OC | 3.72 µM
CNc1ccccc1C(C)(C)c1cc(-c2cc(C)cc(C)c2)no1 | 18.4 µM
Cn1cc([N+](=O)[O-])c(C(=O)Nc2ccc(-c3nc4ccccc4o3)cc2)n1 | 2.33 µM
C=CCn1c(Sc2ncc([N+](=O)[O-])s2)n[nH]c1=O | 3.59 µM
Cc1ccc(NC(=S)N(CCCN2CCCC2)Cc2cccn2Cc2ccc(Cl)cc2)cc1Cl | 4.92 µM
O=C(NNC(=O)c1cc(-c2ccc(Cl)c(Cl)c2)nc2ccccc12)Nc1ccccc1 | 6.4 µM
CCCCOc1ccc(C(=O)Nc2ccc3c(c2)OCO3)cc1 | 3.66 µM
CN1CCN(Cc2nc3ccccc3c(=O)n2Cc2nc(-c3ccc4ccccc4c3)cs2)CC1 | 3.59 µM
Cc1cc(C)c(OCCCCN2CCNCC2)c(C)c1 | 16 µM
O=C(Nc1ccc(N2CCN(Cc3ccccc3F)CC2)cc1)c1ccc([N+](=O)[O-])o1 | 1.94 µM
O=C(Cc1ccccc1)Nc1cccc(NC(=O)c2ccccc2)c1 | 9.89 µM
CN1CCN(CCCN2c3ccccc3Sc3ccc(Cl)cc32)CC1 | 5.25 µM
Nc1cc(-c2ccc(OC(F)(F)F)cc2)nn1-c1ccc(Cl)c(Cl)c1 | 5.83 µM
CCc1ccc(S(=O)(=O)Nc2ccc(O)c3ccccc23)cc1 | 14.7 µM
CCCCCCSc1ccc([C@H]2N[C@@](C)(C(=O)OC)[C@H]3C(=O)N(CC)C(=O)[C@@H]23)cc1 | 19.8 µM
Cc1nn(CCc2nn[nH]n2)c2nc(-c3ccc(C4CCCCC4)cc3)cc(C(F)(F)F)c12 | 2.7 µM
Nc1nc(Cl)nc2c1ncn2[C@H]1C[C@H](O)[C@@H](CO)O1 | 0.318 µM
O=C(/C=C/c1cc2ccccc2o1)c1ccccc1O | 10.1 µM
CCOC(=O)CSC1=C(C#N)C(c2sccc2C)CC(=O)N1 (stereo not drawn) | > 19.5 µM (inactive)
CCCCCCc1cc2cc(-c3nnc(-c4cc(OC)c(OC)c(OC)c4)o3)c(=O)oc2cc1O | 5.89 µM
O=C(/C=C/c1c(F)cccc1Cl)c1ccc(O)cc1 | 7.97 µM
COc1ccc(/C=C(\C#N)c2c[nH]c3ccccc23)cc1 | 0.577 µM
Cc1ccc(C(=O)Cn2nnc3c(sc4nc5c(c(-c6ccccc6)c43)CCC5)c2=O)cc1 | 0.687 µM
Cc1sc(NC(=O)C2CCCCC2)c(C#N)c1-c1ccccc1 | > 19.5 µM (inactive)
Cc1nc2ccccc2n1-c1nc(-c2ccco2)cc(C(F)(F)F)n1 | 0.817 µM
